Consider three molecules from publication PMC3985514 (Biochemistry, 2014).

For orientation: inhibition means how much of the control response was suppressed. For orientation: Km means the substrate concentration at which the rate is half of its maximum.

Where “and” joins values, the source holds several entries; their conditions need not be identical. Equal values may be shown once. Read-outs that look alike come from different tables or passages of the source.

The target of the test is Mtb NDH-2 (Mycobacterium tuberculosis, UniProt P95160). It is filed as biochemical.
Sequence of Mtb NDH-2 (P95160 whole entry): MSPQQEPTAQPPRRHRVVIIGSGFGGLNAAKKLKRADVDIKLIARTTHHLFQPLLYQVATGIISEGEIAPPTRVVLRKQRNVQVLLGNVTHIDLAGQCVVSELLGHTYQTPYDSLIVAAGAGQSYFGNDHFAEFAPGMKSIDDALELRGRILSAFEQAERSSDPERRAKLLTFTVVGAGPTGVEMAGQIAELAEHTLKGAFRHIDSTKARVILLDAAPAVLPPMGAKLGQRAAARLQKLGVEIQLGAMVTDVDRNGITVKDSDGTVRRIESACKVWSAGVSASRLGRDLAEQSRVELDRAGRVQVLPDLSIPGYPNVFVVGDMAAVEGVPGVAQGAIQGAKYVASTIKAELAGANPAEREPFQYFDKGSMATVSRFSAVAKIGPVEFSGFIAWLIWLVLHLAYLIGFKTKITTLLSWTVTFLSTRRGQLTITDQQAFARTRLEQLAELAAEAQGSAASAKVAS

`COc1c(O)c(C)c(CC=C(C)C)c(O)c1OC` [UQ1H2]: the inhibition (1.0 mM UQ1H2, 0.05 mM UQ1 as electron acceptor, membrane-bound NDH-2) was found to be 30 ± 10%. Besides, the increase in activity result (UQ0 as electron acceptor, membrane-bound NDH-2) was “up to 5 fold”.

Turning to `NC(=O)C1=CN([C@@H]2O[C@H](COP(=O)(O)OP(=O)(O)OC[C@H]3O[C@@H](n4cnc5c(N)ncnc54)[C@H](O)[C@@H]3O)[C@@H](O)[C@H]2O)C=CC1` [NADH, nicotinamide adenine dinucleotide, reduced form], the Km is, setting by setting: (read-out: KM for NADH (average), membrane-bound NDH-2 with UQ0, average) 280 µM; (read-out: KM^NADH) 240 µM and 320 µM.

On to `COC1=C(OC)C(=O)C(C)=CC1=O` [UQ0], for which the kcat was determined as 570.0 ± 200 s^–1. Further, the kcat ([…], NADH oxidation with the quinone as electron acceptor, [NADH] varied) was 580.0 ± 170 s^–1. Further, the kcat ([…], ratio plot, [UQ0] = 6.25[NADH]) is listed as 330 ± 15 s^–1. For the same molecule, the Vmax (membrane-bound NDH-2, both with and without UQ1H2) is 0.12 ± 0.01 A340 min^–1 nM^–1. Besides, the Km (read-out: apparent KM value for UQ0, membrane-bound NDH-2, absence of UQ1H2 (Figure 6C)) was 350 ± 7 µM.
